According to patent US20100137221A1, “PEPTIDES THAT INTERACT WITH TOPOISOMERASE I AND METHODS THEREOF” (UNIVERSITY UTAH RESEARCH FOUNDATION, priority 2007, published 2010):

Key:
HCT 116 tumor = assay: In vivo HCT 116 tumor xenograft in nude mice; set-up: species or system nude (BalbC nu/nu) mice; settings: all doses tested, i.p.
Procedure: In vivo mouse studies: HCT 116 cells (4×10^6) were injected into the flanks of nude (BalbC nu/nu) mice for both experiments. The animals were randomized when the tumors were staged at 50 mm^3. In the first experiment, control animals were administered 0.1 ml of vehicle (α-MEM containing 0.05% methylcarboxycellulose and 2% DMSO) i.p., in the absence of peptide (PBS, control #1) or presence of T1BP2-T (control #2, 150 μg in 0.1 ml PBS) or T1BP3-T (control #3, 150 μg in 0.1 ml PBS) injected s.c. at site of tumor. […] Animals treated with 9AC were divided into 4 groups, each containing 5 mice. T1BP-T and PBS subcutaneous injections were administered as described above at the site of the tumor, 30 minutes after the i.p. injection of 9AC in a 50 μl volume. 9AC was dissolved in vehicle. Groups consisted of animals treated with a total of 4 mg/kg 9AC (low dose) in the absence or presence of T1BP2-T or a total of 8 mg/kg 9AC (high dose). Animals were treated with 1 or 2 mg/kg doses, twice a week over 2 weeks. In the second experiment, 18 mice were evaluated in three groups of six animals. Control animals were injected i.p. with 0.1 ml of vehicle (α-MEM containing 0.05% methylcarboxycellulose and 2% DMSO). […]

top 1-DNA binding = biological target: T1, top 1-DNA binding (Homo sapiens, UniProt P11387); assay: Biosensor analysis of the effect of peptide on top 1-DNA binding; settings: 50 nM CPP4; top 1 5, 10 and 20 nM; biotinylated linear DNA
T1 construct: made in house; host or cells: Sf9 insect cells (baculovirus) or human placenta
T1 sequence (P11387 1-765): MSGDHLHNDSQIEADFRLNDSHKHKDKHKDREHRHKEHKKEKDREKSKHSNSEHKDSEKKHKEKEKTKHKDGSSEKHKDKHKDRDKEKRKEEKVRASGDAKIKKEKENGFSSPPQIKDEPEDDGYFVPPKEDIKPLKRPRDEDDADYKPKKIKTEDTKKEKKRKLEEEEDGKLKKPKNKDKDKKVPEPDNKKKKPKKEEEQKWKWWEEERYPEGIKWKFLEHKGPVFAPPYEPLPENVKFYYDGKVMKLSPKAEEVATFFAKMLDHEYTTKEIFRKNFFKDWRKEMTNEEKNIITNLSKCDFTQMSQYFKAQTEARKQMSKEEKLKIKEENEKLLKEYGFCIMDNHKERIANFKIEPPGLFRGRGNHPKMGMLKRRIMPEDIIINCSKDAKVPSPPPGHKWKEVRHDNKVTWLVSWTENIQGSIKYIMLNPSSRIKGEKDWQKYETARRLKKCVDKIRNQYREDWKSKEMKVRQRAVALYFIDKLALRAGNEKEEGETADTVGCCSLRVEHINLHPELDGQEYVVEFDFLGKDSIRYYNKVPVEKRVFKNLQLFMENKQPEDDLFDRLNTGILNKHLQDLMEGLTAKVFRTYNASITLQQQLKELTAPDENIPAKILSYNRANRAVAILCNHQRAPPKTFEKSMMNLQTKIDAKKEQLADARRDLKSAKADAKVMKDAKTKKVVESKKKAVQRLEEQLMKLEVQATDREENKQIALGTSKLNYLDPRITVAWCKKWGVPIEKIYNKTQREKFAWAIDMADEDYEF
Procedure: Biotinylated linear DNA was attached to the flow cell via straptavidin. Top 1 (5, 10 and 20 nM) was applied.

top 1 dissociation from DNA (top 1-DNA binding) | Molecule | anti-tumor effect of 9AC alone (HCT 116 tumor)
 | CC[C@@]1(O)C(=O)OCc2c1cc1n(c2=O)Cc2cc3c(N)cccc3nc2-1 [9AC, 9-amino camptothecin] | significant anti-tumor effects
dissociation is slowed | DRVPLVHVIFNSFGY [CPP4] | 
